Holding throughout (assay type): biochemical
Experiment [1] has as its target T1, recombinant human DAO (diamine oxidase) (Homo sapiens, UniProt P19801).
T1 construct: purchased R&D systems
T1 sequence (P19801 20-751): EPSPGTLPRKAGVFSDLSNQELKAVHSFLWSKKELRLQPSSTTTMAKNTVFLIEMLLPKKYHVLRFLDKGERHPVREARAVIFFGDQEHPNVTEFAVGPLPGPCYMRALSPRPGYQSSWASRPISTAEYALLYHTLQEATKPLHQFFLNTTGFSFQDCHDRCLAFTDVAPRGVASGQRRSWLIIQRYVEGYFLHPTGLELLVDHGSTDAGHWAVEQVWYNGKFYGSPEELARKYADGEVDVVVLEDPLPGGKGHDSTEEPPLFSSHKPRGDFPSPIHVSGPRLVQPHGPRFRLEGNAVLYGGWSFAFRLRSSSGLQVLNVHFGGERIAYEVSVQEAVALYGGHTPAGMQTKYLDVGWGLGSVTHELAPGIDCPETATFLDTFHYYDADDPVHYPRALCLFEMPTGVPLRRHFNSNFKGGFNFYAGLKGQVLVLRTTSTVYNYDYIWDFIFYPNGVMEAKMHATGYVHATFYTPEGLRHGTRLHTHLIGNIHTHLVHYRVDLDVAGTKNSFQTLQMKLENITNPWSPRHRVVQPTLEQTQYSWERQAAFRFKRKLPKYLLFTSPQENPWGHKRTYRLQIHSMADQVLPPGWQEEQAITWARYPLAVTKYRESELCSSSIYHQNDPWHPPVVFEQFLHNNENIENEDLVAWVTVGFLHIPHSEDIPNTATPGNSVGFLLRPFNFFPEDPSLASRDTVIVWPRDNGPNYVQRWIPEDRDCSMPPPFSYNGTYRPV
The experiment can be described thus: Activity evaluation on recombinant human DAO (Amplex Red/HRP-coupled assay, 1 mM putrescine substrate). The conditions noted are these: read-out: Inhibitory Activity (IC50, nM) DAO. The method in brief: (§1)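 Enzyme was preincubated with compounds (8-point 1:3 series, final DMSO <1%) 30 min at 37 °C in 50 mM sodium phosphate pH 7.4, then given 200 uM Amplex Red and 1 U/mL HRP with substrate. H2O2-derived resorufin fluorescence (ex 544/em 590 nm) was followed over 1–2 h; IC50 came from 4-parameter logistic fits of signal-rate inhibition versus DMSO control.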

Experiment [2] has as its target T2, recombinant human MAO-B (monoamine oxidase-B) (Homo sapiens, UniProt P27338).
T2 construct: purchased Sigma-Aldrich
T2 sequence (P27338 1-520): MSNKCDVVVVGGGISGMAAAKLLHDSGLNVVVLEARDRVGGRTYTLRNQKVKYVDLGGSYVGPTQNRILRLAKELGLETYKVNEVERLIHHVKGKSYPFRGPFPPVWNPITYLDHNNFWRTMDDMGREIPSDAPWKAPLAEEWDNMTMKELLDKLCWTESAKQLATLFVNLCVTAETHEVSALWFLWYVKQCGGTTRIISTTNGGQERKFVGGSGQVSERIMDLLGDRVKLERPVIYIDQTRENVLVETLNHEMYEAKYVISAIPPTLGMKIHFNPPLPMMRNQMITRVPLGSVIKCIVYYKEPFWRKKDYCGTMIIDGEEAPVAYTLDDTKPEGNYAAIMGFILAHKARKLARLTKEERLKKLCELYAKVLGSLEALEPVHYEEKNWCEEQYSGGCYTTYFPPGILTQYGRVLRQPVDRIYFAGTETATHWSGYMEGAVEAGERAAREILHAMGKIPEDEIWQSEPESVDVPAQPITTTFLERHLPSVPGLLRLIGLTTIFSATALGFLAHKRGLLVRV
The experiment can be described thus: Activity evaluation on recombinant human MAO-B (Amplex Red/HRP-coupled assay, 1 mM benzylamine substrate). The conditions noted are these: read-out: Inhibitory Activity (IC50, nM) MAO-B. The method in brief: as §1

The target in the next experiment is T3, recombinant human VAP-1 (Homo sapiens, UniProt Q16853).
T3 construct: purchased R&D systems
T3 sequence (Q16853 1-763): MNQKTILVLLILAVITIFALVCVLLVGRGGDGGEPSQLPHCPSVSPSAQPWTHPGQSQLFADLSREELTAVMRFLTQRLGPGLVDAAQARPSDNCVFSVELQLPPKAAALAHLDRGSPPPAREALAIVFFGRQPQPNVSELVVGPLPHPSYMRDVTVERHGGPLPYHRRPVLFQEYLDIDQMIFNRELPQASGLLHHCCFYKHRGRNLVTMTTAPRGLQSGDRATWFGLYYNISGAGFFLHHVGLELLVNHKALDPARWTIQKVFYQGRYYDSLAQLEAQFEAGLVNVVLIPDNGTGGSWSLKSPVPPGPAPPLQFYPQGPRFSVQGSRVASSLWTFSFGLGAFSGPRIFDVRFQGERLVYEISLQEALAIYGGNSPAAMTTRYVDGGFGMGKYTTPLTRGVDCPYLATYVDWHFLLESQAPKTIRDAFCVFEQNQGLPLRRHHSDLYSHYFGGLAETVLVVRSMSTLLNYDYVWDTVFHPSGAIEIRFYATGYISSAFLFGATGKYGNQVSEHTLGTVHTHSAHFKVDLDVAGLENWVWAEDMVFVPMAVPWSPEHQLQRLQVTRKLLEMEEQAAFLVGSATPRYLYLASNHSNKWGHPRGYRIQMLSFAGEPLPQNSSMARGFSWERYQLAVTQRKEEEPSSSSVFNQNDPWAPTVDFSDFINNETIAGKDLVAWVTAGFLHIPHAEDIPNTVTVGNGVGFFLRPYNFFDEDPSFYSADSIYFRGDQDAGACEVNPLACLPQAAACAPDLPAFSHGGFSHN
The experiment can be described thus: Activity evaluation on recombinant human VAP-1 (Amplex Red/HRP-coupled hydrogen peroxide assay, benzylamine substrate). The conditions noted are these: read-out: Inhibitory Activity (IC50, nM) human VAP-1. The method in brief:
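Recombinant human VAP-1 in 50 mM sodium phosphate pH 7.4 preincubated 30 min at 37 °C with compound (8-point 1:3 series, <1% DMSO), then 1 mM benzylamine, 200 uM Amplex Red, 1 U/mL HRP added. H2O2-derived resorufin fluorescence (ex 544/em 590) followed 1–2 h; IC50 from four-parameter fit of rate inhibition.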

The target of experiment [3] is T4, recombinant human MAO-A (monoamine oxidase-A) (Homo sapiens, UniProt P21397).
T4 construct: purchased Sigma-Aldrich
T4 sequence (P21397 1-527): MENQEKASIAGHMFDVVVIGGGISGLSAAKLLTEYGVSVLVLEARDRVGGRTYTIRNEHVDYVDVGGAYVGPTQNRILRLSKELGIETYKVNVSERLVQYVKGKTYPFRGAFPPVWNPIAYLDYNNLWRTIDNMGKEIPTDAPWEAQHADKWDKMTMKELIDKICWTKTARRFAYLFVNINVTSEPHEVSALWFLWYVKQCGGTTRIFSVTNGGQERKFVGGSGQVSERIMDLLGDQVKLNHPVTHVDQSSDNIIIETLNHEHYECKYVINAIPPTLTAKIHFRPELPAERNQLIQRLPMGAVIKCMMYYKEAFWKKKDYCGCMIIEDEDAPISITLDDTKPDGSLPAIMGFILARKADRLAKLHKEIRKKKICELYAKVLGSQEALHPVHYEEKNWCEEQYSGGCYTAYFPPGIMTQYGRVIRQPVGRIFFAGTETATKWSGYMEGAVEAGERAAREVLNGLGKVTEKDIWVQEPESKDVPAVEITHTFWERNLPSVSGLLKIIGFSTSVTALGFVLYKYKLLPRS
The experiment can be described thus: Activity evaluation on recombinant human MAO-A (Amplex Red/HRP-coupled assay, 0.5 mM tyramine substrate). The conditions noted are these: read-out: Inhibitory Activity (IC50, nM) MAO-A. In a few lines:
as §1

Setting [4] is: recombinant human VAP-1, 30 min preincubation at 37° C., 1 mM benzylamine.
Where [5] appears, read: recombinant human VAP-1, benzylamine substrate.

The source of these data is patent US11168073B2, “3,3-difluoroallylamines or salts thereof and pharmaceutical compositions comprising the same” (YUHAN CORPORATION, priority 2018, dated 2021).

SMILES strings stand for the structures. Structures can show the parent of a compound that is named as a salt. Where two headings read alike, the source gives them in different places.

For the molecule `CS(=O)(=O)c1ccc(-c2cnc(-n3cnn(CC(CN)=C(F)F)c3=O)cn2)cc1` [Example 89, 2-[2-(aminomethyl)-3,3-difluoro-allyl]-4-[5-(4-methylsulfonylphenyl)-pyrazin-2-yl]-1,2,4-triazol-3-one Trifluoroacetate], the half-inhibitory concentration (IC50) in experiment [1] (1 mM putrescine) is 2 nM; in experiment [2] (1 mM benzylamine) it was 1900 nM; at recombinant human VAP-1 (setting [4]), 0.6 nM; in experiment [3] (0.5 mM tyramine), more than 100000 nM.
`NCC(Cn1ncn(-c2cccc(-c3ccc4c(c3)OCO4)n2)c1=O)=C(F)F` [Example 50, 2-[2-(aminomethyl)-3,3-difluoro-allyl]-4-[6-(1,3-benzodioxol-5-yl)-2-pyridyl]-1,2,4-triazol-3-one Trifluoroacetate]: the concentration for half-maximal inhibition (IC50) is 1200 nM in experiment [1] (1 mM putrescine), 13000 nM in experiment [2] (1 mM benzylamine), 1.5 nM at recombinant human VAP-1 (setting [4]) and more than 100000 nM in experiment [3] (0.5 mM tyramine).
For `NCC(Cn1ncn(Cc2ccc(-c3ccc(N4CCNCC4)nc3)s2)c1=O)=C(F)F` [Example 114, 2-[2-(aminomethyl)-3,3-difluoro-allyl]-4-[[5-(6-piperazin-1-yl-3-pyridyl)-2-thienyl]methyl]-1,2,4-triazol-3-one Ditrifluoroacetate] the same measures were 970 nM, more than 100000 nM, 4.9 nM and more than 100000 nM.
For `NCC(Cn1ncn(Cc2cc(-c3ccc4c(c3)COC(=O)N4)cs2)c1=O)=C(F)F` [Example 191, 6-[5-[[1-[2-(aminomethyl)-3,3-difluoro-allyl]-5-oxo-1,2,4-triazol-4-yl]methyl]-3-thienyl]-1,4-dihydro-3,1-benzoxazin-2-one Trifluoroacetate], the IC50 in experiment [1] (1 mM putrescine substrate) was 4200 nM; in experiment [2] (1 mM benzylamine substrate), 44000 nM; on recombinant human VAP-1 (setting [5]) it was 0.3 nM; in experiment [3] (0.5 mM tyramine substrate), more than 100000 nM.
For the molecule `Cc1cc(-c2ccccc2Cn2cnn(CC(CN)=C(F)F)c2=O)cc2c1NC(=O)CC2` [Example 283, 6-[2-[[1-[2-(aminomethyl)-3,3-difluoro-allyl]-5-oxo-1,2,4-triazol-4-yl]methyl]phenyl]-8-methyl-3,4-dihydro-1H-quinolin-2-one Trifluoroacetate], the 50% inhibitory concentration (IC50) in experiment [1] (1 mM putrescine substrate) was more than 100000 nM; in experiment [2] (1 mM benzylamine substrate) it was more than 100000 nM; at recombinant human VAP-1 (setting [5]), 154 nM; in experiment [3] (0.5 mM tyramine substrate), more than 100000 nM.
Consider `Cc1cc(-c2cccc(Cn3cnn(CC(CN)=C(F)F)c3=O)c2)cc2c1NC(=O)CC2` [Example 275, 6-[3-[[1-[2-(aminomethyl)-3,3-difluoro-allyl]-5-oxo-1,2,4-triazol-4-yl]methyl]phenyl]-8-methyl-3,4-dihydro-1H-quinolin-2-one Trifluoroacetate], for which the IC50 in experiment [1] (1 mM putrescine substrate) was 5160 nM; in experiment [2] (1 mM benzylamine substrate), 25400 nM; at recombinant human VAP-1 (setting [5]), 0.9 nM; in experiment [3] (0.5 mM tyramine substrate) it was more than 100000 nM.
With `Cc1cc(-n2cnn(CC(CN)=C(F)F)c2=O)cnc1-c1ccc(N(C)C)nc1` [Example 78, 2-[2-(aminomethyl)-3,3-difluoro-allyl]-4-[6-[6-(dimethylamino)-3-pyridyl]-5-methyl-3-pyridyl]-1,2,4-triazol-3-one Trifluoroacetate], the IC50 in experiment [1] (1 mM putrescine) is 57 nM; in experiment [2] (1 mM benzylamine) it was 9800 nM; on recombinant human VAP-1 (setting [4]) it was 0.6 nM; in experiment [3] (0.5 mM tyramine) it was more than 100000 nM.
Regarding `Cc1cc(-c2ccc3sc(N)nc3c2)cnc1-n1cnn(CC(CN)=C(F)F)c1=O` [Example 226, 4-[5-(2-amino-1,3-benzothiazol-5-yl)-3-methyl-2-pyridyl]-2-[2-(aminomethyl)-3,3-difluoro-allyl]-1,2,4-triazol-3-one Trifluoroacetate], the IC50 is more than 100000 nM in experiment [1] (1 mM putrescine substrate), 11000 nM in experiment [2] (1 mM benzylamine substrate), 0.5 nM on recombinant human VAP-1 (setting [5]) and more than 100000 nM in experiment [3] (0.5 mM tyramine substrate).
Regarding `CS(=O)(=O)c1ccc(-c2ccc(-n3cnn(CC(CN)=C(F)F)c3=O)cn2)cc1` [Example 38, 2-[2-(aminomethyl)-3,3-difluoro-allyl]-4-[6-(4-methylsulfonylphenyl)-3-pyridyl]-1,2,4-triazol-3-one Trifluoroacetate], the IC50 is 24 nM in experiment [1] (1 mM putrescine), 450 nM in experiment [2] (1 mM benzylamine), 0.4 nM at recombinant human VAP-1 (setting [4]) and more than 100000 nM in experiment [3] (0.5 mM tyramine).
For `NCC(Cn1ncn(Cc2cc(-c3ccc(C(F)(F)F)nc3)cs2)c1=O)=C(F)F` [Example 148, 2-[2-(aminomethyl)-3,3-difluoro-allyl]-4-[[4-[6-(trifluoromethyl)-3-pyridyl]-2-thienyl]methyl]-1,2,4-triazol-3-one Trifluoroacetate] the same measures were 6300 nM, 8700 nM, 0.7 nM and more than 100000 nM.
For the molecule `NCC(Cn1ncn(Cc2ccc(-c3cnc4c(c3)CCCN4)s2)c1=O)=C(F)F` [Example 145, 2-[2-(aminomethyl)-3,3-difluoro-allyl]-4-[[5-(5,6,7,8-tetrahydro-1,8-naphthyridin-3-yl)-2-thienyl]methyl]-1,2,4-triazol-3-one Ditrifluoroacetate], the concentration for half-maximal inhibition (IC50) in experiment [1] (1 mM putrescine) is more than 100000 nM; in experiment [2] (1 mM benzylamine) it was more than 100000 nM; at recombinant human VAP-1 (setting [4]) it was 0.8 nM; in experiment [3] (0.5 mM tyramine), more than 100000 nM.
